# Laboratory results reported in ChEMBL document CHEMBL1151275, “An anthraquinone with potent quinone reductase-inducing activity and other constituents of the fruits of Morinda citrifolia (noni)” (J Nat Prod, 2005).
# What was measured:
# [1] = Cytotoxicity against mouse Hepa-1c1c7 cells after 48 hrs by crystal violet staining; format: cell-based; details: Hepa-1c1c7, 48 h
# [2] = Chemoprevention index, ratio of IC50 for mouse Hepa-1c1c7 cells to drug level required to double specific NADPH:quinone reductase activity in mouse Hepa-1c1c7 cells; format: functional
Structure (SMILES),IC50 [1] [µM],Ratio [2]
C[S@+]([O-])CCCCN=C=S [L-SULFORAPHANE],9.77,28.7
COc1c(O)cc2c(c1O)C(=O)c1ccc(O)cc1C2=O,> 69.9,>7770
COc1ccc(O)c2c1C(=O)c1ccc(CO)c(O)c1C2=O,> 66.6,>39.9
